{
  "source": "paper PMC8073907",
  "about": "“Peptide targeting of lysophosphatidylinositol-sensing GPR55 for osteoclastogenesis tuning” (Cell Communication and Signaling : CCS, 2021)",
  "key": {"endogenous GPR55 (HeLa)": {"tested_on": "endogenous GPR55 (HeLa)", "assay": "LPI-induced ERK/p38 phosphorylation in shCTRL-HeLa clones (Western blot)", "type": "cell-based, human", "settings": "10 µM soybean LPI, 10 min, mean of three independent experiments", "experimental": "For stable interference of GPR55, HeLa cells were plated at 1.5 × 10^5 cells/well in six-well plates in growth medium without antibiotics, and 24 h later, the cells were transfected with 1.7 µg/well OmicsLink short hairpin (sh)RNA expression clone CSHCTR001-CU6 (shCTRL) or clone HSH022476-3-CU6 (shGPR55) from GeneCopoeia (Rockville, MD, USA), using Lipofectamine 2000, according the manufacturer instructions. Forty-eight hours after transfection, HeLa clones stably expressing shRNAs were selected in growth medium containing 0.3 µg/mL puromycin. The efficiency of interference was monitored by real-time PCR using the primers listed in the Additional file 1: Table S1. HPRT1 was followed as a housekeeping gene.\nTwenty-four hours after transfection (HEK293T, HeLa cells or clones) or 72 h after interference (RAW264.7 cells), the cells were washed twice with HBSS^++, serum deprived (HEK293T cells for 4 h in DMEM; HeLa cells and clones for 2 h in MEM plus 2 mM glutamine and 25 mM HEPES; RAW264.7 cells for 2 h in DMEM), washed once again with HBSS^++, incubated in stimulation buffer (HBSS^++ with 10 mM HEPES, 0.4% faf-BSA for HEK293T cells; HBSS^++ with 25 mM HEPES and 0.01% faf-BSA for HeLa cells, clones, and RAW264.7 cells) in the absence or presence of stimuli, at 37 °C for the indicated times. Incubations were terminated by washing the cells twice with cold HBSS^++, and the analyses were performed as reported below.\nCell lysates were obtained by scraping the cells into phospho-lysis buffer: 50 mM Tris–HCl, pH 7.5, 100 mM NaCl, 5 mM EDTA, 1% Triton X-100, 50 mM NaF, 40 mM β-glycerophosphate, 200 µM sodium orthovanadate, plus protease and phosphatase inhibitors (Roche). Following gentle homogenisation by 20 passages through a 26-gauge needle, the lysates were centrifuged at 10,000×g for 5 min at 4 °C, and the supernatants were collected.\nProtein lysates were subjected to SDS-PAGE, and after electrophoresis, the proteins were transferred to a nitrocellulose membrane (PerkinElmer Life Science, Boston, MA, USA). For immunoblotting, the membranes were blocked with 5% non-fat milk in TBS (10 mM Tris–HCl, pH 7.4, 10 mM NaCl) plus 0.1% Tween-20 (T-TBS) for 30 min at room temperature, and incubated with primary antibodies in T-TBS plus 3% BSA for 2 h at room temperature, or overnight at 4 °C. The membranes were washed twice in T-TBS for 7 min, and then incubated with secondary antibodies conjugated to horseradish peroxidase (1:5,000) (Calbiochem, San Diego, CA, USA) in T-TBS with 5% non-fat milk for 30 min at room temperature. The membranes were then washed twice with T-TBS and once with TBS for 5 min, and the signals were detected by ECL (Amersham Pharmacia, Piscataway, NJ, USA). The rabbit anti-phospho AKT (Ser473), anti-phospho p38 (Thr180/Tyr182), anti-phospho p42/44 (Thr202/Tyr204), anti-p38 (all at dilution 1:1000) were from Cell Signaling Technology (Danvers, MA, USA). The rabbit anti-AKT (B-1), and anti-p42/44 (ERK1; K-23) were from Santa Cruz Biotechnology."}, "ssGPR55-K80A": {"tested_on": "ssGPR55-K80A", "assay": "GPR55-internalisation assay, K80A mutant (FACS)", "type": "cell-based, human", "settings": "ssGPR55-K80A, HeLa; 10 µM soybean LPI, 15 min; three independent experiments", "from_the_text": "The construct of haemagglutinin (HA)-tagged human GPR55 in pcDNA3 (HA-GPR55) was a gift from Prof. K. Mackie, Indiana University, Bloomington, IN, USA [39], while the construct ss-3 × HA-GPR55 in pcDNA3.1 (ssGPR55) with a triple HA tag at the N-terminus and an optimised signal sequence (ss, derived from amino acids 1–33 of the human growth hormone: […]) for efficient surface expression was from Prof. A. Irving, Dundee University, UK [40]. For both constructs, mutations were introduced by site-directed mutagenesis using QuickChange kits (Stratagene, La Jolla, CA, USA), according to the manufacturer instructions. The primers for the K80A mutation were 5′-[…]-3′ and 5′-[…]-3′ (Tm, 70.6 °C), and for Q87A were 5′-[…]-3′ and 5′-[…]-3′ (Tm, 73.1 °C).\nHeLa cells were plated at 1.5 × 10^5 cells/well in six-well plates in their growth medium without antibiotics. […]\nFor the GPR55-internalisation assay, after stimulation, the HeLa cells were washed twice with cold HBSS^++, stained while adhered with the monoclonal anti-HA antibody (1:1000) in PBS plus 3% BSA for 1 h on ice, washed three times with cold PBS, incubated with the Alexa488-tagged anti-mouse antibody (1:800) in PBS plus 3% BSA for 45 min on ice. […] The collected cells were centrifuged at 300×g, suspended in PBS plus 3% BSA, and analysed by FACS."}},
  "data": [
    {"substance": "lysophosphatidylinositol [LPI]", "values": [
      {"measurement": "ERK2 phosphorylation upon LPI stimulation", "setting": "endogenous GPR55 (HeLa)", "result": "7.8 -fold basal levels"},
      {"measurement": "p38 phosphorylation upon LPI stimulation", "setting": "endogenous GPR55 (HeLa)", "result": "2.5 -fold basal levels"},
      {"measurement": "change of cell-surface level of receptor", "setting": "ssGPR55-K80A", "result": "not changed"}
    ]}
  ]
}
